From patent publication US7491507B2, “Process for preparing peptides with anti-hypertensive properties” (Chr. Hansen A/S, priority 2002, dated 2009)

Tested on: Spontaneously Hypertensive Rats (SHR)
Experiment: In vivo test of anti-hypertensive properties: systolic blood pressure by plethysmography in conscious SHR after gavage
Parameters: species or system rat
Conditions: gavage 2 ml of product (Enalapril 20 mg/kg in milk)
Protocol: Strains were streaked on MRS agar and incubated anaerobically for 48 h at 37° C. A single colony was picked, inoculated into MRS broth and grown overnight at 37° C. Stock cultures were prepared from this overnight culture and were stored at −80° C. in 20% glycerol. The strains were precultivated in milk overnight and inoculated 1% (v/v) in fresh milk for the fermentation.
The milk was fermented with the strains of single or mixed cultures for 16 hours with an inoculation level of 1% (v/v). The total product was freeze-dried. A second fermentation, with the same conditions as the first one, was centrifuged. The pellet was discarded and the whey was filtered through a […] filter and frozen. The whey was used to solubilize the freeze-dried powder to concentrate it with a factor 5 before feeding the rats.
Spontaneously Hypertensive Rats (SHR) was obtained from IFFA CREDO (a Charles River company), Lyon, France. […]
Systolic blood pressure was determined by plethysmography in conscious SHR before as well as […] after gavages, at the different times described below. […]
Systolic blood pressure of Group 1 was determined parallel to those of groups 2 and 3 and serves as control.
The day of the gavage systolic blood pressure was determined before as well as 6 and 24 hours after gavage.

## CCOC(=O)[C@H](CCc1ccccc1)N[C@@H](C)C(=O)N1CCC[C@H]1C(=O)O [Enalapril]
5 hours after administration
  variation of systolic blood pressure: −30
24 hours after administration
  variation of systolic blood pressure: −17
